Reference: ChEMBL document CHEMBL4130368, “Thienopyrimidine derivatives exert their anticancer efficacy via apoptosis induction, oxidative stress and mitotic catastrophe” (Eur J Med Chem, 2017)

Key:
Format in all cases: functional
2008 [1] = experiment: Induction of apoptosis in human OV2008 cells assessed as necrotic cells at 2 uM measured after overnight incubation by mitotracker red/alexa fluor-488 Annexin V staining-based flow cytometry (reference value: 6.31%)
A2780 [2] = experiment: Induction of apoptosis in human A2780 cells assessed as viable cells at 2 uM measured after overnight incubation by mitotracker red/alexa fluor-488 Annexin V staining-based flow cytometry (reference value: 78.1%); settings: read-out: Activity
HCT-116 [3] = experiment: Cell cycle arrest in human HCT116 cells assessed as accumulation at G2 phase at 1 uM measured after overnight incubation by propidium iodide staining-based flow cytometry (reference value: 24%)
2008 [4] = experiment: Cell cycle arrest in human OV2008 cells assessed as accumulation at subG1 phase at 1 uM measured after overnight incubation by propidium iodide staining-based flow cytometry (reference value: 2.64%)
HCT-116 [5] = experiment: Cell cycle arrest in human HCT116 cells assessed as accumulation at G2 phase at 2 uM measured after overnight incubation by propidium iodide staining-based flow cytometry (reference value: 24%)
HCT-116 [6] = experiment: Cell cycle arrest in human HCT116 cells assessed as accumulation at subG1 phase at 1 uM measured after overnight incubation by propidium iodide staining-based flow cytometry (reference value: 0.154%)
HCT-116 [7] = experiment: Induction of apoptosis in human HCT116 cells assessed as necrotic cells at 1 uM measured after overnight incubation by mitotracker red/alexa fluor-488 Annexin V staining-based flow cytometry (reference value: 2.67%)
A2780 [8] = experiment: Induction of apoptosis in human A2780 cells assessed as early apoptotic cells at 2 uM measured after overnight incubation by mitotracker red/alexa fluor-488 Annexin V staining-based flow cytometry (reference value: 11.9%)

With `COc1ccc(-c2nc(O)c3c4c(sc3n2)CCCC4)cc1` the Activity 2008 [1] was 3.79%, the viability at 2 µM (A2780 [2]) was 42.9% and the Activity (HCT-116 [3]) was 47.1%. It also gave an Activity 2008 [4] of 4.17%, an Activity (HCT-116 [5]) of 54.8% and an Activity (HCT-116 [6]) of 0.087%. The Activity (HCT-116 [7]) was 1.48% and the Activity (A2780 [8]) was 51.2%.
